Data from ChEMBL document CHEMBL1201862, “PubChem BioAssay data set” (2004).
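A five-concentration, 48-hour dose response in 96-well plates underlies each endpoint, interpolated linearly between surrounding concentrations. The concentration for 50% growth inhibition is given as GI50.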 The source made the active and inactive calls. Rule as the data show it: active = GI50 up to about 1.1 µM and inactive = higher.

Columns and labels:
Assay in all cases: NCI-60 cell line screen, 48 h
[1] = test system: A549
[2] = test system: ACHN
[3] = test system: CCRF-CEM
[4] = test system: DMS-273
[5] = test system: HOP-62
[6] = test system: NCI-H522
[7] = test system: OVCAR-4
[8] = test system: OVCAR-8
[9] = test system: SF-295
[10] = test system: SK-MEL-5
[11] = test system: SNB-75
[12] = test system: SR
[13] = test system: TK-10
[14] = test system: UO-31
[15] = test system: HCC 2998
[16] = test system: HOP-92
[17] = test system: OVCAR-5
[18] = test system: MCF7
[19] = test system: NCI/ADR-RES
[20] = test system: T47D

Structure (SMILES) | GI50 [1] | GI50 [2] | GI50 [3] | GI50 [4] | GI50 [5] | GI50 [6] | GI50 [7] | GI50 [8] | GI50 [9] | GI50 [10] | GI50 [11] | GI50 [12] | GI50 [13] | GI50 [14] | GI50 [15] | GI50 [16] | GI50 [17] | GI50 [18] | GI50 [19] | GI50 [20]
CC(=O)O[C@]12CCCCC1C1(O)C(O)CCCCC12 (some centres not stated) | > 100 µM (inactive) | 76 µM (inactive) | > 100 µM (inactive) | > 100 µM (inactive) | > 100 µM (inactive) | > 100 µM (inactive) | > 100 µM (inactive) | > 100 µM (inactive) | > 100 µM (inactive) | > 100 µM (inactive) | > 100 µM (inactive) | > 100 µM (inactive) | > 100 µM (inactive) | > 100 µM (inactive) | – | – | – | – | – | –
CCc1cccc(C)c1NC(=O)CC(=O)NNC(N)=S | > 100 µM (inactive) | > 100 µM (inactive) | > 100 µM (inactive) | > 100 µM (inactive) | > 100 µM (inactive) | > 100 µM (inactive) | > 100 µM (inactive) | > 100 µM (inactive) | > 100 µM (inactive) | > 100 µM (inactive) | > 100 µM (inactive) | – | > 100 µM (inactive) | > 100 µM (inactive) | > 100 µM (inactive) | > 100 µM (inactive) | > 100 µM (inactive) | – | – | –
CC(=O)O[C@]12CCCCCC1C1(O)C(O)CCC[C@H]12 (some centres not stated) | > 100 µM (inactive) | > 100 µM (inactive) | > 100 µM (inactive) | > 100 µM (inactive) | > 100 µM (inactive) | – | > 100 µM (inactive) | > 100 µM (inactive) | > 100 µM (inactive) | > 100 µM (inactive) | > 100 µM (inactive) | > 100 µM (inactive) | > 100 µM (inactive) | > 100 µM (inactive) | – | – | – | – | – | –
CC1(Br)C(=O)NC(=O)N(C2CC(N=[N+]=[N-])C(CO)O2)C1N=[N+]=[N-] (configuration not stated) | > 100 µM (inactive) | > 100 µM (inactive) | 53.1 µM (inactive) | > 100 µM (inactive) | > 100 µM (inactive) | 23.1 µM (inactive) | > 100 µM (inactive) | > 100 µM (inactive) | > 100 µM (inactive) | > 100 µM (inactive) | > 100 µM (inactive) | – | > 100 µM (inactive) | > 100 µM (inactive) | > 100 µM (inactive) | > 100 µM (inactive) | > 100 µM (inactive) | – | – | –
CC(C)(C)OC(=O)N1CC(COS(C)(=O)=O)c2ccc(O)cc21 (configuration not stated) | 3.12 µM (inactive) | 0.684 µM (active) | 0.455 µM (active) | – | 3.3 µM (inactive) | 1.05 µM (active) | 1.18 µM (inactive) | 1.85 µM (inactive) | 2.91 µM (inactive) | 1.51 µM (inactive) | 1.46 µM (inactive) | 0.703 µM (active) | 3.37 µM (inactive) | 1.97 µM (inactive) | 0.133 µM (active) | 2.52 µM (inactive) | 2.12 µM (inactive) | 1.13 µM (inactive) | 1.74 µM (inactive) | 3.05 µM (inactive)
COc1cc(Br)cc2cc(-c3cn4ccsc4n3)c(=O)oc12 | 30.3 µM (inactive) | 34.8 µM (inactive) | 35 µM (inactive) | – | 29.1 µM (inactive) | 31 µM (inactive) | 51.2 µM (inactive) | 45.8 µM (inactive) | 26.8 µM (inactive) | 19.7 µM (inactive) | 32.1 µM (inactive) | 25.9 µM (inactive) | 64.7 µM (inactive) | 23.8 µM (inactive) | 7.24 µM (inactive) | 11.1 µM (inactive) | 68.1 µM (inactive) | 7.19 µM (inactive) | 34.2 µM (inactive) | 19.6 µM (inactive)
